Experimental data from patent US5434186A, “Carboxylic acid leukotriene B4 antagonists” (Hoffmann-La Roche Inc., priority 1993, dated 1995).
Read-outs that look alike come from different tables or passages of the source.

Assays:
[1] = tested on: LTB4 -induced skin inflammation; experiment: LTB4 Induced Skin Inflammation (hairless guinea pig); type: in vivo; conditions: for ID50, LTB4-induced skin inflammation, coinjection with LTB4: co-injection, 120 ng LTB4 intradermal; for ED50: Cavia porcellus
Experimental: Skin inflammation is induced in the hairless guinea pig by the intradermal injection of 50 μl Gey's salt solution/10% DMSO containing 120 ng LTB4. Injections are performed along the dorsal skin of the animals. Test compounds are administered at various times by co-injection, intravenous or oral administration. The test animals are euthanized four to six hours after the LTB4 injection and uniform skin punches are prepared from the injection sites. Punches are homogenized in 0.5% hexadecyltrimethyl ammonium bromide for one minute and centrifuged for 20 minutes at 14,000× g. Leukocyte accumulation is measured by assaying for myeloperoxidase activity in a kinetic assay using dimethoxybenzidine as the substrate. […] Skin injected with 120 ng LTB4 can show myeloperoxidase levels of 0.30-0.40 U/punch. LTB4 induced leukocyte accumulation is confirmed histologically in hematoxylin/eosin stained sections.

[2] = biological target: T1, LTB4 Receptor (Homo sapiens, UniProt Q15722); experiment: LTB4 Receptor Binding Assay (inhibition of 3H-LTB4 binding, human neutrophils); conditions: 0.5 nM 3H-LTB4, 45 minutes on ice, isolated human neutrophils
T1 construct: Isolated human neutrophils in Gey's salt solution; endogenous in cells; host or cells: human neutrophils isolated from blood (90-95% neutrophils)
T1 sequence (Q15722 whole entry): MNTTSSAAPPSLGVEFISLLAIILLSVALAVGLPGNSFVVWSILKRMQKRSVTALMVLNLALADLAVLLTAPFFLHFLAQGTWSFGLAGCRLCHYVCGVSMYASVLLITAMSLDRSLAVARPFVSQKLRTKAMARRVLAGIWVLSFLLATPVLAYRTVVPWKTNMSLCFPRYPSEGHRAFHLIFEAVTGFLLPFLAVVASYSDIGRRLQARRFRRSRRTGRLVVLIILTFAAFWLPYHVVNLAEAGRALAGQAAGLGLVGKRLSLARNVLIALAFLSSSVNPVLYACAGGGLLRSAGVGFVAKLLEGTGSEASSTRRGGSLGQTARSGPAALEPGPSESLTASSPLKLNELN
Experimental: Binding assays can be performed in microtiter wells. Isolated human neutrophils in Gey's salt solution are incubated on ice for 45 minutes with 0.5 nM ^3 H-LTB4 in the presence or absence of test compounds. Assays are terminated by adding 12 ml ice cold 50 mM Tris (pH 7.4) followed by rapid filtration under vacuum through GF/C filters. Radioactivity is determined by scintillation counting. Non specific binding is defined as the binding not displaced by 100 fold excess of unlabelled LTB4. Specific binding is defined as the difference between total binding and non-specific binding. Non linear analysis of the binding data is performed using LIGAND (Munson and Rodbard, 1980). Ki (Inhibition Constant) values were determined using the Cheng-Prusoff relationship (Cheng and Prusoff, 1973).
(§1) Human neutrophils are prepared from citrated or heparinized blood. The blood was diluted 1:1 with Hank's balanced salt solution (HBSS) minus calcium and magnesium and underlayed with 10 ml lymphocyte separation medium (Organon Teknika), followed by centrifugation at 500× g for 30 min., at room temperature. Supernatants are removed down to the red blood cell pellet. HBSS minus calcium and magnesium are added to give 25 ml. To this are added 25 ml 6% dextran in 0.85% NaCl. Samples are mixed and allowed to stand 20 min at room temperature. Supernatants are removed and centrifuged at 500× g for 5 min at 4° C. Pellets are resuspended with 20 ml 0.2% saline for 20 sec followed by the addition of 20 ml 1.6% saline. Samples are centrifuged at 500× g for 5 min at 4° C. The lysis is repeated and the cells (90-95% neutrophils) are resuspended at 2× 10^6 cell/ml in GEY's salt solution.

[3] = tested on: LTB4 -induced bronchoconstriction; experiment: Guinea Pig Bronchoconstriction In Vivo (LTB4-induced); parameters: species or system guinea pig (Hartley strain); conditions: Cavia porcellus, iv, i.v. five minutes prior to LTB4 (1 μg/kg i.v.), read-out: ID50 (mg/kg), i.v., LTB4-induced bronchoconstriction
Experimental: Male guinea pigs (Hartley strain) weighing 300 to 500 g are anesthetized with urethane (2 g/kg) intraperitoneally and a polyethylene cannula is inserted into the jugular vein for drug administration. Tracheal pressure is recorded from a cannula inserted into the trachea and connected to a Gould P23ID pressure transducer. After surgical preparation of the animals, a period of time is allowed for pulmonary functions to stabilize. The test compound is administered intravenously five minutes prior to leukotriene B4 administration according to the following protocol: Animals are paralyzed with succinylcholine (1.2 mg/kg i.v.) and mechanically respirated (Harvard rodent respirator) at 40 breaths/minute and 2.5 cc tidal volume. Propranolol (0.1 mg/kg) is then administered intravenously one minute prior to leukotriene B4 administration. Animals are then challenged with an intermediate constrictory dose of leukotriene B4 (1 μg/kg) delivered intravenously.
The change (cm H2 O) between pre and peak ventilatory pressure readings is averaged for five control and five drug treated animals. The percent inhibition is calculated from the formula:
((Control-Drug Treated)/Control)×100
When representative compounds of formula I of the invention were utilized as the test compounds the following results were obtained: […]

[4] = tested on: LTB4 -induced bronchoconstriction; experiment: as above; parameters: species or system guinea pig (Hartley strain); conditions: Cavia porcellus, po, read-out: ID50 (mg/kg), p.o., LTB4-induced bronchoconstriction
[5] = tested on: myeloperoxidase activity in mucosal scrapings; experiment: Acetic acid colitis (myeloperoxidase activity in mucosal scrapings); type: in vivo, Male Wistar rats; conditions: rat, 10 mg/kg twice daily for 3 days, N=10
Experimental: Male Wistar rats, weighing 175-225 g, are pretreated with test compound at 10 mg/kg, twice daily for 3 days (72 hours) prior to the evaluation of colitis. Colitis is induced after 2 days (48 hours) with an enema of 2 ml of 3.5% acetic acid; the acetic acid is neutralized after 10 seconds by 3 ml of phosphate-buffered saline, pH 7.4. After 3 days (72 hours), animals are sacrificed and myeloperoxidase activity in mucosal scrapings is determined as described in the skin inflammation model. Myeloperoxidase levels are presented as Units/gm mucosa.

[6] = tested on: LTB4 mediated calcium fluxes in human neutrophils; experiment: Calcium Flux Assay (inhibition of LTB4 mediated calcium fluxes in human neutrophils); type: cell-based; conditions: Neutrophil; Fura2 labelled human neutrophils, 2.4 nM LTB4
Experimental: as §1
LTB4 induced changes in intracellular calcium concentration are measured using Fura2 labelled human neutrophils. Cells at a concentration of 2-5×10^6 /ml are labelled with 5 μM Fura2 for 30 minutes in Hank's balanced salt solution without calcium and magnesium. The cells are washed and resuspended at a final concentration of 1-2×10^7 cells/ml in Gey's solution. Calcium fluxes are initiated by the addition of 2.4 nM LTB4. Test compounds at appropriate concentrations are added to the cells just prior to the addition of LTB4. […] Fluorescence measurements are made in a Perkin Elmer model LS-5B spectrofluorimeter at a temperature setting of 37° C. Calcium concentrations are determined using the ratio method (ratio of cell fluorescence to media fluorescence).
When representative compounds of formula I of the invention were tested, the results set forth in Table H and expressed as inhibition of LTB4 mediated calcium fluxes in human neutrophils, were obtained.

[7] = oral, read-out: ID50, LTB4-induced skin inflammation, oral route

| SMILES | Ki [2] | IC50 [6] | ID50, LTB4-induced skin inflammation, coinjection with LTB4 [1] | ED50 [3] | ED50 [4] | % inhibition (myeloperoxidase, acetic acid colitis) [5] | ED50 [1, 7] | ED50 ([1]; intravenous at the time of the intradermal LTB4 injection, read-out: ID50, LTB4-induced skin inflammation, intravenous administration) |
| --- | --- | --- | --- | --- | --- | --- | --- | --- |
| CCCc1c(OCCCCCCc2ccc(C(=O)c3cccc(C(=O)O)c3)cc2CCC(=O)O)ccc2c1OCCC2=O [Example 99, 5-[(3-Carboxyphenyl)carbonyl]-2-[6-[(3,4-dihydro-4-oxo-8-propyl-2H-1-benzopyran-7-yl)oxy]hexyl]benzenepropanoic Acid] | 1 nM |  | 20 ng |  |  |  |  |  |
| CCCc1c(OCCCCCOc2cccc(OCCCCC(=O)O)c2CCC(=O)O)ccc2c1OCCC2=O [Example 62, 6-(4-Carboxybutoxy)-2-[5-[(3,4-dihydro-4-oxo-8-propyl-2H-1-benzopyran-7-yl)oxy]pentyloxy]benzenepropanoic Acid] | 0.8 nM |  | 35 ng | 2.06 mg/kg |  |  |  |  |
| CCCc1c(OCCCCCCc2ccc(OCCCC(=O)O)cc2CCC(=O)O)ccc2c1OCCC2=O [Example 54, 5-(3-Carboxypropoxy)-2-[6-[(3,4-dihydro-4-oxo-8-propyl-2H-1-benzopyran-7-yl)oxy]hexyl]benzenepropanoic Acid] |  | 2 nM | 10 ng | 0.01 mg/kg | 8.7 mg/kg | 68% | 5 mg/kg |  |
| CCCc1c(OCCCCCOc2ccc(C(=O)c3cccc(C(=O)O)c3)cc2CCC(=O)O)ccc2c1OCCC2=O [Example 20, 5-[(3-Carboxyphenyl)carbonyl]-2-[5-[(3,4-dihydro-4-oxo-8-propyl-2H-1-benzopyran-7-yl)oxy]pentyloxy]benzenepropanoic Acid] | 2 nM | 1 nM | 100 ng | 1.46 mg/kg |  |  | 30 mg/kg | 6 mg/kg |
| CCCc1c(OCCCCCOc2ccc(Cl)cc2CCC(=O)O)ccc2c1OCCC2=O [Example 17, 5-Chloro-2-[5-[(3,4-dihydro-4-oxo-8-propyl-2H-1-benzopyran-7-yl)oxy]pentyloxy]benzenepropanoic Acid] | 36 nM | 70 nM |  | 2.02 mg/kg |  |  |  |  |
| CCCc1c(OCCCCCOc2ccccc2CCC(=O)O)ccc2c1OCCC2=O [Example 4, 2-[5-[(3,4-Dihydro-4-oxo-8-propyl-2H-1-benzopyran-7-yl)oxy]pentyloxy]benzenepropanoic Acid] |  | 26 nM |  | 0.66 mg/kg | > 10 mg/kg |  |  |  |
| CCCc1c(OCCCCCCc2cccc(OCCCCC(=O)O)c2CCC(=O)O)ccc2c1OCCC2=O [Example 126, 2-(4-Carboxybutoxy)-6-[6-[(3,4-dihydro-4-oxo-8-propyl-2H-1-benzopyran-7-yl)oxy]hexyl]benzenepropanoic Acid] |  | 2 nM |  | 0.12 mg/kg | 0.54 mg/kg |  |  |  |
| CCCc1c(OCCCCCOc2ccc(C(=O)CCCC(=O)O)cc2CCC(=O)O)ccc2c1OCCC2=O [Example 87, 3-(2-Carboxyethyl)-4-[5-[(3,4-dihydro-4-oxo-8-propyl-2H-1-benzopyran-7-yl)oxy]pentyloxy]-δ-oxobenzenepentanoic Acid] | 3 nM |  | 20 ng | 4.41 mg/kg | > 10 mg/kg |  |  |  |

More lines, main results first:

| Ki [2] | IC50 [6] | SMILES | ID50, LTB4-induced skin inflammation, coinjection with LTB4 [1] | ED50 [3] | ED50 [4] | % inhibition (myeloperoxidase, acetic acid colitis) [5] | ED50 [1, 7] | ED50 ([1]; intravenous at the time of the intradermal LTB4 injection, read-out: ID50, LTB4-induced skin inflammation, intravenous administration) |
| --- | --- | --- | --- | --- | --- | --- | --- | --- |
| 1 nM | 1 nM | CCCc1c(OCCCCCCc2cccc(OCCCCCO)c2CCC(=O)O)ccc2c1OCCC2=O [Example 180, 2-[6-[(3,4-Dihydro-4-oxo-8-propyl-2H-1-benzopyran-7-yl)oxy]hexyl]-6-[(5-hydroxypentyl)oxy]benzenepropanoic Acid] |  | 0.14 mg/kg | 4.8 mg/kg |  |  |  |
| 1 nM | 1 nM | CCCc1c(OCCCCCCc2cccc(CCCCCC(=O)O)c2CCC(=O)O)ccc2c1OCCC2=O [Example 169, 2-(2-Carboxyethyl)-3-[6-[(3,4-dihydro-4-oxo-8-propyl-2H-1-benzopyran-7-yl)oxy]hexyl]benzenehexanoic Acid] |  | 0.13 mg/kg | 4.4 mg/kg |  |  |  |
|  | 1 nM | CCCc1c(OCCCCCCc2cccc(OCCCCCC(=O)O)c2CCC(=O)O)ccc2c1OCCC2=O [Example 157, 2-[(5-Carboxypentyl)oxy]-6-[6-[(3,4-dihydro-4-oxo-8-propyl-2H-1-benzopyran-7-yl)oxy]hexyl]benzenepropanoic Acid] |  | 0.07 mg/kg | 0.27 mg/kg |  |  |  |
